What all share (assay type): in vivo, rabbit
In assay [1] the test system is collagen type IV. The assay is described as follows: Alkali burn model: IHC collagen type IV intensity in anterior and posterior stroma (ImageJ). The conditions noted are these: one month. The procedure:
Worth, TX) and a 5 mm diameter circular Whatman No. 1 filter paper (Cat #1001-6508, Fisher Scientific) wetted with 100 μl of 1N NaOH solution. Following the alkali burn injury, the cornea was irrigated profusely with BSS. Each injured cornea also received one drop of ciprofloxacin (Alcon, Ft. Worth, TX, USA) ten minutes after surgery and four times a day for one week and at least 15 minutes apart from the study medications. […] Worth TX), at least 5 minutes apart, or 4) 50 μl of BSS. Multiplex immunohistochemistry (IHC) was performed using previously described methods^8 and primary antibodies (Table 7) confirmed by western blotting and IHC to recognize rabbit antigens or isotypic control antibodies (Thermo Fisher Scientific, Waltham, MA), and secondary fluorescent tagged antibodies (Table 7). The collagen type IV antibody (Cat. #AB769, Millipore, Temecula CA) was raised against purified human and bovine collagen type IV that had been affinity purified with human and bovine collagen type IV crosslinked to agarose and cross-absorbed by the manufacturer with human and bovine collagens type I, II, III, V and VI to eliminate cross-reactivity. This collagen type IV antibody was shown previously to bind rabbit collagen IV in IHC,^8,9 and recognizes the alpha-1/alpha-2 chains but not the alpha-3 to alpha-6 chains. The keratocan antibody is raised against peptide […]-OH (SEQ ID NO:1). This marker was used to identify keratocytes in situ. […] All corneas in each group had IHC for collagen type IV. Images from each cornea were converted to uniform 300 DPI, 875×568 pixel, files. […] The staining intensity within each box was determined with the analyze histogram function and the mean of three boxes was the intensity value in the anterior or posterior stroma for that cornea.

For assay [2], the system named is collagen type IV. As to the kind of experiment: DMR model: IHC collagen type IV intensity in posterior stroma (ImageJ). The settings on record: one month. On the procedure:
(§1) The rabbits had general anaesthesia with 30 mg/kg ketamine hydrochloride and 5 mg/kg xylazine by IM injection. In addition, topical proparacaine hydrochloride 1% (Alcon, Ft Worth, TX, USA) was applied to each eye prior to the surgery. One cornea selected at random in each group either had sham surgery without Descemetorhexis or an 8 mm diameter central Descemet's membrane-endothelial excision. The time point of one month after surgery was selected for the study because myofibroblasts and fibrosis in the posterior cornea was maximal at this time point in a prior time course Descemetorhexis study (Sampaio et al., 2021). Descemetorhexis was performed as described in the prior study (Sampaio et al., 2021). Briefly, a wire lid speculum was placed into one eye of each rabbit and an 8 mm diameter gentian violet circle was marked on the epithelial surface for reference. A limbal entry incision was created with a 1.6 mm blade (Bausch and Lomb, Rochester, NY, USA) and 0.3 ml Healon OVD (Abbott Medical Optics Inc. Santa Ana, CA, USA) was injected into the anterior chamber. A reversed Sinskey hook (Katena, Denville, New Jersey, USA) was placed into the anterior chamber and an 8 mm diameter disc of Descemet's membrane and endothelium was excised underlying the 8 mm area previously marked on the anterior corneal surface, without a subsequent endothelial corneal transplant. No removal of Descemet's membrane or endothelium was performed in unwounded sham surgery eyes. Remaining Healon OVD was removed with a Simcoe irrigation and aspiration cannula (Bausch & Lomb, Storz, Rochester, NY, USA) and the anterior chamber was filled with balanced salt solution (BSS). A single 10-0 nylon suture was placed at the incision site to prevent leakage from the anterior chamber. One drop of ciprofloxacin (Alcon, Ft. Worth, TX, USA) was applied to the corneas immediately after surgery and four times a day until the epithelium entry wound healed at approximately 2 days.
The oral solution was prepared with 5 ml distilled water+50 ml ora-plus (suspending vehicle—Perrigo, Dublin, Ireland)+45 ml Ora-sweet (flavored syrup vehicle—Perrigo).
Duplex immunohistochemistry (IHC) was performed after masking of slides by a researcher not involved in the analysis using previously described methods (de Oliveira et al., 2021) using primary antibodies (Table 2) confirmed by western blotting and IHC to recognize rabbit antigens or isotypic control antibodies (ThermoFisher Scientific, Waltham, MA), and secondary fluorescent tagged antibodies (Table 3).
The AB769 (Millipore, Temecula CA) collagen type IV antibody used in this study was generated against purified human and bovine collagen type IV, affinity purified with human and bovine collagen type IV crosslinked to agarose and cross-absorbed by the manufacturer with human and bovine collagens type I, II, III, V and VI to eliminate cross-reactivity. […]
Collagen type IV intensity in immunohistochemistry images was quantitated in 0.75 W×0.5H rectangles of posterior stroma tangent to the posterior corneal surface using ImageJ on 7.62 cm wide×5.69 cm height and 300 DPI images generated using standardized microscopic illumination settings applied to all sections. The quantitation rectangles were positioned such that the posterior side of the rectangle was tangent to the posterior corneal surface just anterior to Descemet's membrane, if one was present, in the analysed specimens. […]

The subject of the next assay is TGF beta-1. As to the kind of experiment: DMR model: IHC TGF beta-1 in posterior stroma. The conditions noted are these: topical and/or oral losartan, one month. The procedure:
as §1, with “No removal of Descemet's membrane or endothelium was performed in unwounded sham surgery eyes. Remaining Healon OVD was removed with a Simcoe irrigation and aspiration cannula (Bausch & Lomb, Storz, Rochester, NY, USA) and the anterior chamber was filled with balanced salt solution (BSS). A single 10-0 nylon suture was placed at the incision site to prevent leakage from the anterior chamber. One drop of ciprofloxacin (Alcon, Ft. Worth, TX, USA) was applied to the corneas immediately after surgery and four times a day until the epithelium entry wound healed at approximately 2 days.” left out

Assay [3] relates to corneal neovascularization (CNV). The assay is described as follows: Alkali burn model: central corneal neovascularization (corneal angiography). The settings on record: four corneas in each group, topical six times per day, one month. On the procedure:
Alkali injuries were produced in one eye of rabbits with previously published methods^10 using 1N sodium hydroxide (Sigma, St. Louis, MO) in balanced salt solution (BSS, 0.64% sodium chloride, 0.075% potassium chloride, 0.048% calcium chloride dihydrate, […] magnesium chloride hexahydrate, 0.39% sodium acetate trihydrate, 0.17% sodium citrate dihydrate, pH 7.5, Alcon, H. Worth, TX) and a 5 mm diameter circular Whatman No. 1 filter paper (Cat #1001-6508, Fisher Scientific) wetted with 100 μl of 1N NaOH solution. Following the alkali burn injury, the cornea was irrigated profusely with BSS. Each injured cornea also received one drop of ciprofloxacin (Alcon, Ft. Worth, TX, USA) ten minutes after surgery and four times a day for one week and at least 15 minutes apart from the study medications.
Worth TX), at least 5 minutes apart, or 4) 50 μl of BSS.
All corneas had fluorescent angiography at the peak of dye passage in the cornea immediately after injection of 1.5 ml of 10% sodium fluorescein (McKesson, Irvine, TX) in the central ear vein with the slit lamp system and digital camera system using a “barrier filter” that only transmitted 520-530 nm, the peak of fluorescein emission, with broad illumination of the cornea, as previously described.^11

Setting [4] is: topical losartan and oral losartan.

Each structure is given as a SMILES string.

Consider `CCCCc1nc(Cl)c(CO)n1Cc1ccc(-c2ccccc2-c2nn[nH]n2)cc1` [losartan], for which, in the assay with collagen type IV [1], the “COL IV staining intensity in the posterior stroma vs vehicle treatment” value is “significantly different” and the “mean intensity units of collagen type IV in the anterior stroma compared to vehicle treatment” value was “significantly decreased”. In addition, in the assay with collagen type IV [2] (oral losartan alone), the “collagen type IV production in the posterior stroma” value is given as “no significant effect”. In addition, the “collagen type IV localization in posterior stroma (IHC)” value with collagen type IV [2] (topical losartan alone) is “primarily detected adjacent to the posterior surfaces”. In the assay with collagen type IV [2] (setting [4]), the “collagen type IV vs DMR corneas treated with topical losartan alone” value is on record as “not different”; the “posterior stromal collagen type IV production compared to topical vehicle and oral vehicle (ImageJ intensity)” value is given as “significantly decreased”. Also, the “posterior stromal collagen type IV production compared to topical vehicle and oral vehicle (ImageJ intensity)” value in the assay on collagen type IV [2] (topical losartan) was “significantly decreased”. Besides, the “levels of TGF beta-1 in the posterior stroma or at the posterior stromal surface compared to vehicle-treated corneas” value in the assay on TGF beta-1 was “No effect”. Besides, in assay [3], the “corneas in which central corneal neovascularization developed” value is reported as “two”.
